PubChem BioAssay AID743127 (The Scripps Research Institute Molecular Screening Center, 2013)
The source made the active and inactive calls. The rule behind the calls is not given here.

Assay: cell viability reduction in serum-free and serum medium – absorbance readout, serum-free and serum-supplemented medium, cytotoxicity control for LYPLA1/LYPLA2 inhibitor project, late-stage follow-up (AID 743127)
Details: serum-free or serum medium

Structure (SMILES)	CC50 (in serum-free medium)	CC50 (in serum-supplemented medium)
O=C(ON1C(=O)C2CN(C(=O)N3CCCCC3)CCN2C1=O)N1CCC(CCc2ccc(Cl)cc2)CC1 (centres undefined)	> 10 µM (inactive)	> 10 µM (inactive)
O=C(ON1C(=O)C2CN(C(=O)N3CCOCC3)CCN2C1=O)N1CCC(CCc2ccc(Cl)cc2)CC1 (centres undefined)	> 100 µM (inactive)	100 µM (inactive)
